Source: the supplement of paper PMC10307832

What was measured:
Experiment in all cases: relative viability (nuclei count vs DMSO), 5 days (fraction); higher = more cells survive
AZ505 + Crizotinib = compound: C1CCC(CC1)N(CCNCCC2=C3C(=C(C=C2)O)NC(=O)CO3)C(=O)CCNCCC4=CC(=C(C=C4)Cl)Cl [AZ505] + C[C@@H](Oc1cc(-c2cnn(C3CCNCC3)c2)cnc1N)c1c(Cl)ccc(F)c1Cl [Crizotinib] (partner 1 µM)
Summary of the method: (§1)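 Dosing by pin tool came one day after lung cancer cell lines were seeded in 1536-well plates, using either one drug or a fixed anchor-drug dose plus five library-drug doses (not always all listed) in √10 steps. After 5 days, nuclei were counted on 4× images. Relative viability is treated-well nuclei count divided by vehicle-well nuclei count, and values are medians of duplicate plates.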

AZ505 + Linsitinib = compound: C1CCC(CC1)N(CCNCCC2=C3C(=C(C=C2)O)NC(=O)CO3)C(=O)CCNCCC4=CC(=C(C=C4)Cl)Cl [AZ505] + C[C@]1(O)C[C@@H](c2nc(-c3ccc4ccc(-c5ccccc5)nc4c3)c3c(N)nccn32)C1 [Linsitinib] (partner 1 µM)
Summary of the method: as §1

Dactolisib + Palbociclib = compound: Cn1c(=O)n(-c2ccc(C(C)(C)C#N)cc2)c2c3cc(-c4cnc5ccccc5c4)ccc3ncc21 [Dactolisib] + CC(=O)c1c(C)c2cnc(Nc3ccc(N4CCNCC4)cn3)nc2n(C2CCCC2)c1=O [Palbociclib] (partner 0.5 µM)
Summary of the method: as §1

Dactolisib + Decitabine = compound: Cn1c(=O)n(-c2ccc(C(C)(C)C#N)cc2)c2c3cc(-c4cnc5ccccc5c4)ccc3ncc21 [Dactolisib] + Nc1ncn([C@H]2C[C@H](O)[C@@H](CO)O2)c(=O)n1 [Decitabine] (partner 2 µM)
Summary of the method: as §1

Cell Line | relative viability (AZ505 + Crizotinib; first compound 0.08 µM) | relative viability (AZ505 + Crizotinib; first compound 0.253 µM) | relative viability (AZ505 + Crizotinib; first compound 0.8 µM) | relative viability (AZ505 + Crizotinib; first compound 2.53 µM) | relative viability (AZ505 + Crizotinib; first compound 8 µM) | relative viability (AZ505 + Linsitinib; first compound 0.08 µM) | relative viability (AZ505 + Linsitinib; first compound 0.253 µM) | relative viability (AZ505 + Linsitinib; first compound 0.8 µM) | relative viability (AZ505 + Linsitinib; first compound 2.53 µM) | relative viability (AZ505 + Linsitinib; first compound 8 µM) | relative viability (Dactolisib + Palbociclib; first compound 0.002 µM) | relative viability (Dactolisib + Palbociclib; first compound 0.006325 µM) | relative viability (Dactolisib + Palbociclib; first compound 0.02 µM) | relative viability (Dactolisib + Palbociclib; first compound 0.06325 µM) | relative viability (Dactolisib + Palbociclib; first compound 0.2 µM) | relative viability (Dactolisib + Decitabine; first compound 0.002 µM) | relative viability (Dactolisib + Decitabine; first compound 0.006325 µM) | relative viability (Dactolisib + Decitabine; first compound 0.02 µM) | relative viability (Dactolisib + Decitabine; first compound 0.06325 µM) | relative viability (Dactolisib + Decitabine; first compound 0.2 µM)
NCI-H1437 | 0.801 | 0.852 | 0.863 | 0.927 | 0.895 | 1.02 | 1.15 | 1.08 | 1.08 | 1.03 | 0.321 | 0.328 | 0.369 | 0.274 | 0.215 | 0.716 | 0.551 | 0.676 | 0.569 | 0.482
NCI-H1651 | 0.804 | 0.82 | 0.874 | 0.823 | 0.885 | 0.911 | 0.977 | 0.895 | 0.962 | 1.16 | 0.532 | 0.487 | 0.463 | 0.348 | 0.231 | 0.644 | 0.689 | 0.503 | 0.327 | 0.314
NCI-H1666 | 0.903 | 1.03 | 0.96 | 0.997 | 0.954 | 0.835 | 0.718 | 0.849 | 0.726 | 0.941 | 0.628 | 0.624 | 0.673 | 0.622 | 0.579 | 0.836 | 0.714 | 0.756 | 0.607 | 0.596
NCI-H1734 | 0.66 | 0.657 | 0.591 | 0.623 | 0.658 | 0.654 | 0.908 | 0.801 | 0.949 | 0.883 | 0.344 | 0.356 | 0.314 | 0.228 | 0.201 | 0.542 | 0.491 | 0.478 | 0.341 | 0.259
NCI-H1755 | 0.767 | 0.928 | 0.907 | 0.87 | 0.777 | 0.968 | 0.984 | 0.924 | 0.985 | 0.974 | 0.482 | 0.423 | 0.42 | 0.388 | 0.38 | 0.87 | 0.768 | 0.766 | 0.673 | 0.536
NCI-H1792 | 0.734 | 1.08 | 0.935 | 0.928 | 1.11 | 0.552 | 0.652 | 0.424 | 0.509 | 0.577 | 0.676 | 0.651 | 0.568 | 0.34 | 0.271 | 0.56 | 0.429 | 0.414 | 0.186 | 0.121
NCI-H1915 | 0.881 | 0.948 | 0.887 | 0.827 | 0.969 | 1.14 | 1.1 | 1.03 | 0.942 | 1.04 | 0.609 | 0.496 | 0.557 | 0.317 | 0.262 | 0.291 | 0.259 | 0.266 | 0.285 | 0.251
NCI-H1944 | 1.12 | 1.04 | 1.11 | 0.881 | 1.15 | 1.15 | 1.12 | 1.23 | 0.922 | 1.07 | 0.403 | 0.334 | 0.23 | 0.192 | 0.181 | 0.502 | 0.416 | 0.45 | 0.272 | 0.262
NCI-H1975 | 0.891 | 0.994 | 0.902 | 0.836 | 0.995 | 0.907 | 0.923 | 0.783 | 0.919 | 0.955 | 0.551 | 0.561 | 0.536 | 0.182 | 0.129 | 0.387 | 0.349 | 0.394 | 0.286 | 0.25
NCI-H1993 | 0.928 | 0.85 | 0.766 | 1.03 | 0.798 | 0.677 | 0.654 | 0.728 | 0.91 | 0.7 | 0.605 | 0.524 | 0.439 | 0.424 | 0.354 | 0.722 | 0.503 | 0.511 | 0.389 | 0.46
NCI-H2009 | 0.989 | 1.03 | 0.976 | 1 | 0.976 | 1.1 | 1.22 | 1.12 | 1.11 | 1.15 | 0.235 | 0.202 | 0.235 | 0.153 | 0.118 | 0.381 | 0.373 | 0.362 | 0.34 | 0.268
NCI-H2023 | 0.641 | 0.719 | 0.683 | 0.795 | 0.67 | 0.685 | 0.626 | 0.669 | 0.814 | 0.552 | 0.395 | 0.297 | 0.274 | 0.106 | 0.0901 | 0.224 | 0.225 | 0.218 | 0.115 | 0.0931
NCI-H2085 | 1.02 | 0.848 | 0.679 | 0.924 | 0.877 | 0.817 | 0.923 | 0.93 | 0.918 | 0.968 | 0.491 | 0.446 | 0.382 | 0.373 | 0.308 | 0.685 | 0.496 | 0.514 | 0.405 | 0.373
NCI-H2087 | 0.683 | 0.743 | 0.998 | 0.752 | 0.838 | 0.986 | 0.846 | 0.986 | 0.932 | 0.973 | 0.275 | 0.232 | 0.221 | 0.172 | 0.142 | 0.314 | 0.265 | 0.249 | 0.205 | 0.133
NCI-H2126 | 0.98 | 1.05 | 0.982 | 1.03 | 1.08 | 0.681 | 0.724 | 0.721 | 0.711 | 0.68 | 0.369 | 0.359 | 0.33 | 0.352 | 0.316 | 0.645 | 0.663 | 0.55 | 0.462 | 0.416
NCI-H2347 | 0.518 | 0.55 | 0.433 | 0.443 | 0.559 | 0.6 | 0.603 | 0.668 | 0.543 | 0.714 | 0.505 | 0.448 | 0.401 | 0.402 | 0.358 | 0.682 | 0.581 | 0.62 | 0.541 | 0.473
